Test results as given in publication PMC5617480 (Oncotarget, 2017).

Experiments:
Format in all cases: binding
[1] = test system: ds26; experiment: FID assay; details: for ds26DC50: FID; for ctDNADC50/ds26DC50: FID selectivity ratio
[2] = test system: F21T; experiment: FRET-melting assay; details: F21T 1.0 μM, compound 2.0 μM
Protocol: (§1) We asked whether chiral platinum(II) complexes 4–6 have the ability to bind to G-quadruplex DNA. To address this, FRET assays, CD spectroscopy, G4-FID assays, and fluorescence titration analysis were performed. […] For G4-HTG21, the ^G4DC50 values of complexes 4–6 were 1.23, 1.26 and 0.99 μM, respectively; while, for G4-Pu27, the ^G4DC50 values were 1.01, 0.89, and 0.82 μM, respectively. In addition, the ^ctDNADC50/^G4DC50 ratio of the HTG21 and Pu27 G4s treated with complexes 4–6 was in the range of 50.54-90.65 and 71.56-110.67 folds, respectively. To further evaluate the binding ability of complexes 4–6 to Pu27 and HTG21G4s, CD spectroscopy and fluorescence titration analysis were performed. […] The quenching ability of complexes 4–6 to HTG21 and Pu27 G4 DNA fluorescence can be quantitatively estimated by their respective quenching constant (Kq), which was derived from the Stern-Volmer quenching equation. […] Finally, the selective binding of complexes 4–6 towards G4 DNA was analyzed by FRET-melting assays. […] In contrast, the ΔTm value for the F32T+H20M duplex DNA in the presence of complexes 4–6 was 1.18, 1.34, and 0.78 °C under the same conditions (Figure 4A). Altogether, our data indicated complexes 4–6, especially complex 6, is the best binder to G4 DNA, which caused DNA complex displaying the highest thermodynamic stability.
(§2) Figure 4 Complexes 4–6 induced telomeres damage and inhibited the telomerase activity through directly regulating the mRNA level of c-myc promoter (Pu27) (A) ΔTm data (°C) of 1.0 μM HTG21, Pu39 and c-myc G4s and duplex DNA (F32T+H20M) treated with complexes 1–6 at 0–2.0 μM were evaluated by […]. (B) The levels of TRF2, 53BP1, and TRF1 in BEL-7404 cells treated with complexes 4–6 at 10 μM for 24 h were examined by Western blot. (C) The whole-cell extracts were prepared and analyzed by Western blot analysis using antibodies against TRF2, 53BP1, and TRF1. The same blots were stripped and re-probed with β-actin antibody to show equal protein loading. Western blotting bands from three independent measurements were quantified with Image J. in (B). (D) The influence of complexes 4–6 (10 μM) on the telomerase activity of the BEL-7404 cells for 24 h. (E) The investigations of the expression of c-myc and hTERT in the BEL-7404 tumor cells when incubated with complexes 4–6 (10 μM) for 24 h. C-myc and hTERT protein levels in BEL-7404 cells were analyzed by western blot. (F) The whole-cell extracts were prepared and analyzed by Western blot analysis using antibodies against c-myc and hTERT. The same blots were stripped and re-probed with β-actin antibody to show equal protein loading. Western blotting bands from three independent measurements were quantified with Image J. in (E). (G) qRT-PCR analysis of the expression levels of hTERT and c-myc in the BEL-7404 cells treated with complexes 4–6 (10 μM). The BEL-7404 cells (5×10^5) were treated with complexes 4–6 (10 μM) for 24 h. The total RNA in the cells was extracted and subjected to reverse transcription, followed by PCR for c-myc, hTERT, and GAPDH (control). (H) and (I) The investigations of the role of the transfections of EGFP plasmid vector (H) and c-myc plasmid vector (I) in the BEL-7404 tumor cells when incubated with complexes 4–6 (10 μM) for 24 h. First, 2.0 μg of EGFP-carrying plasmid vector or 2.0 μg of c-myc-carrying plasmid vector was cotransfected into BEL-7404 cells using Lipofectamine 2000 (Invitrogen, Grand Island, NY, USA). Complexes 4–6 (10 μM) were then added, respectively, into medium at 6.0 h after transfection of c-myc plasmid. At another 24 h after treatment with complexes 4–6 (10 μM), these cells were imaged using Nikon TE2000 (Japan) scanning fluorescent microscope or were examined by Multimodel Plate Reader with luciferase reporter gene assay kit. […]

[3] = test system: FPu18T; experiment: FRET-melting assay; details: FPu18T 1.0 μM, compound 2.0 μM
Protocol: as §1, §2

[4] = test system: F32T+H20M duplex DNA; experiment: FRET-melting assay; details: F32T+H20M duplex DNA 1.0 μM, compound 2.0 μM
Protocol: as §1, §2

Substance | ds26DC50 [1] | ctDNADC50/ds26DC50 [1] | ΔTm [2] | ΔTm [3] | ΔTm [4]
cis-[PtCl2(R-(+)-FOA)] [complex 5] | 2.23 µM | 28.56 | 12.95 °C | 16.66 °C | 1.34 °C
cis-[PtCl2(S-(–)-FOA)] [complex 6] | 1.39 µM | 65.27 | 20.07 °C | 23.01 °C | 0.78 °C
cis-[PtCl2(R/S-(±)-FOA)] [complex 4] | 1.65 µM | 45.98 | 13.19 °C | 19.15 °C | 1.18 °C
